Data published in patent US20250136581A1, “SUBSTITUTED TRIAZOLE DERIVATIVE, PREPARATION METHOD THEREFOR, PHARMACEUTICAL COMPOSITION THEREOF, AND USE THEREOF” (SHANGHAI SIMR BIOTECHNOLOGY CO., LTD., priority 2021, published 2025).
pKi: −log10 of the molar value.

Each molecule was assayed against human α5β3γ2 receptors (α5-GABAA receptor) (Homo sapiens (Human), UniProt P18507+P31644) (assay: 3H-flunitrazepam competition binding, human α5β3γ2 GABAA receptor). Conditions: HEK293 cell membranes, 1 nM 3H-flunitrazepam; read-out: α5-GABAAR Ki.
Experimental: The affinity of the compound to each subtype of GABAA receptor was determined by competing for the binding of ^3H-flunitrazepam to HEK293 cells stably expressing human α1β3γ2, α2β3γ2, α3β3γ2, and α5β3γ2 receptors.
The cells were suspended in 50 mM Tris-HCl buffer (pH=7.4), homogenized 10 times on ice with a homogenizer for 20 seconds, and centrifuged at 1000 g for 10 minutes at 4° C. The supernatant was collected, and the above steps were repeated. The supernatant was centrifuged at 4° C. (33800 g; Thermo, rotor: A27-8×50) for 60 minutes, and the precipitate was resuspended in Tris buffer (50 mM Tris-HCl, 10 mM MgCl2, 0.5 mM EDTA, 10% glycerol). Protein was measured (BCA method, Pierce), and 1 mL aliquots were prepared and stored at −80° C.
The radioligand competition binding assay was performed in a 200 μL system (96-well plate) containing 100 μL of cell membrane. The concentration of ^3H-flunitrazepam was 1 nM and the concentration of the test compound was in the range of […]. Flumazenil was used as a control. 1 μL of 2 mM flumazenil (final concentration […]) was added to the low signal control well (Low control, LC), and 1 μL of DMSO was added to the high signal control well (High control, HC). The final concentration of target membrane protein was […]. All test compound sample storage solutions were 10 mM. The working concentration of the samples was to dilute all the samples to 0.2 mM with DMSO, followed by 4-fold serial gradient dilutions for a total of 8 concentration gradients. The 96-well plate was sealed with a sealing film, and then incubated on a shaker at room temperature for 1 hour. At the same time, the GF/C filter plate was soaked in soaking buffer (0.3% PEI, stored at 4° C.) for at least 0.5 hours. After the binding incubation was completed, the cells were collected onto a GF/C filter plate using a cell harvester. The plate was washed four times with washing buffer (50 mM Tris-HCl, pH 7.4, stored at 4° C.). After drying in a 50° C. oven for 1 hour, the bottom of the dried GF/C filter plate was sealed. The residual radioactivity on the filter membrane was detected using liquid scintillation counting. 50 μL of scintillation fluid was added to each well, and the plate was sealed. The readings were taken using a Microbeta2. The inhibitory activity of the test sample on the binding of ^3H-flunitrazepam to GABAA receptor membrane proteins was calculated, and the IC50 of each test sample was calculated by dose-effect curve fitting (GraphPad Prism 5 software), and the Ki of the sample was calculated from the IC50, thus evaluating the binding ability of the sample to the various subtypes of GABAA receptors.

Molecule | pKi
4-(6-((1-(4-(Difluoromethyl)phenyl)-4-methyl-1H-1,2,3-triazol-5-yl)methoxy)pyridin-3-yl)-1-methyl-1,4-diazepan-2-one [Example 17] | 8.36
Cc1nnn(-c2ccc(C(F)F)cc2)c1COc1ccc(N2CC3(CNC(=O)C3)C2)nn1 [Example 87, 2-(6-((1-(4-(Difluoromethyl)phenyl)-4-methyl-1H-1,2,3-triazol-5-yl)methoxy)pyridazin-3-yl)-2,6-diazaspiro[3.4]octan-7-one] | 8.46
COCCNC(=O)C1CN(c2ccc(OCc3c(C)nnn3-c3ccc(C(F)F)cc3)nn2)C1 [Example 49, 1-(6-((1-(4-(Difluoromethyl)phenyl)-4-methyl-1H-1,2,3-triazol-5-yl)methoxy)pyridazin-3-yl)-N-(2-methoxyethyl)azetidine-3-carboxamide] | 8.19
CCNC(=O)C1C2CN(c3ccc(OCc4c(C)nnn4-c4ccc(C(F)F)cc4)nn3)CC21 (centres unmarked) [Example 39, 3-(6-((1-(4-(Difluoromethyl)phenyl)-4-methyl-1H-1,2,3-triazol-5-yl)methoxy)pyridazin-3-yl)-N-ethyl-3-azabicyclo[3.1.0]hexane-6-carboxamide] | 8.80
Cc1nnn(-c2ccc(C(F)F)nc2)c1COc1ccc(N2CCNC(=O)C2)nn1 [Example 74, 4-(6-((1-(6-(Difluoromethyl)pyridin-3-yl)-4-methyl-1H-1,2,3-triazol-5-yl)methoxy)pyridazin-3-yl)piperazin-2-one] | 7.63
O=C1CN(c2ccc(OCc3c(C4CC4)nnn3-c3ccc(C(F)F)cc3)nn2)CCN1 [Example 83, 4-(6-((4-Cyclopropyl-1-(4-(difluoromethyl)phenyl)-1H-1,2,3-triazol-5-yl)methoxy)pyridazin-3-yl)piperazin-2-one] | 8.59
CC(=O)NC1CCN(c2ccc(OCc3c(C)nnn3-c3ccc(C(F)F)cc3)nn2)C1 (centres unmarked) [Example 88, N-(1-(6-((1-(4-(Difluoromethyl)phenyl)-4-methyl-1H-1,2,3-triazol-5-yl)methoxy)pyridazin-3-yl)pyrrolidin-3-yl)acetamide] | 8.75
Cc1nnn(-c2ccc(C(F)F)cc2)c1COc1ccc(N2CC(C(=O)Nc3ccccc3)C2)nn1 [Example 47, 1-(6-((1-(4-(Difluoromethyl)phenyl)-4-methyl-1H-1,2,3-triazol-5-yl)methoxy)pyridazin-3-yl)-N-phenylazetidine-3-carboxamide] | 8.96
Cc1nnn(-c2ccc(C(F)F)cc2)c1COc1ccc(N2CCCN(S(C)(=O)=O)CC2)nn1 [Example 106, 1-(6-((1-(4-(Difluoromethyl)phenyl)-4-methyl-1H-1,2,3-triazol-5-yl)methoxy)pyridazin-3-yl)-4-(methylsulfonyl)-1,4-diazepane] | 8.13
COc1cc(OCc2c(C)nnn2-c2ccc(C(F)F)cc2)nnc1N1CCNC(=O)C1 [Example 135, 4-(6-((1-(4-(Difluoromethyl)phenyl)-4-methyl-1H-1,2,3-triazol-5-yl)methoxy)-4-methoxypyridazin-3-yl)piperazin-2-one] | 8.98
Cc1nnn(-c2ccc(C(F)F)cc2)c1COc1ccc(N2CC3(CCNC3=O)C2)nn1 [Example 86, 2-(6-((1-(4-(Difluoromethyl)phenyl)-4-methyl-1H-1,2,3-triazol-5-yl)methoxy)pyridazin-3-yl)-2,6-diazaspiro[3.4]octan-5-one] | 8.08
Cc1nnn(-c2ccc(C#N)cc2)c1COc1ccc(N2CCNC(=O)C2)nn1 [Example 75, 4-(6-((1-(4-Cyanophenyl)-4-methyl-1H-1,2,3-triazol-5-yl)methoxy)pyridazin-3-yl)piperazin-2-one] | 7.40
Cc1nnn(-c2ccc(C(F)F)cc2)c1COc1ccc(N2CCN(CCCc3ccc(Cl)cc3)C(=O)C2)nn1 [Example 144, 1-(3-(4-Chlorophenyl)propyl)-4-(6-((1-(4-(difluoromethyl)phenyl)-4-methyl-1H-1,2,3-triazol-5-yl)methoxy)pyridazin-3-yl)piperazin-2-one] | 8.79
Cc1nnn(-c2ccc(C(F)F)cc2)c1COc1ccc(N2CCN[C@H](C#N)C2)nn1 [Example 33, (S)-4-(6-((1-(4-(Difluoromethyl)phenyl)-4-methyl-1H-1,2,3-triazol-5-yl)methoxy)pyridazin-3-yl)piperazine-2-carbonitrile] | 8.48
Cc1nnn(-c2ccc(C(F)F)cc2)c1COc1ccc(N2CCn3cnnc3C2)nn1 [Example 84, 7-(6-((1-(4-(Difluoromethyl)phenyl)-4-methyl-1H-1,2,3-triazol-5-yl)methoxy)pyridazin-3-yl)-5,6,7,8-tetrahydro-[1,2,4]triazolo[4,3-a]pyrazine] | 9.22
Cc1nnn(-c2ccc(C(F)F)cc2)c1COc1ccc(N2CCC(N(C)C)C2)nn1 (centres unmarked) [Example 12, 1-(6-((1-(4-(Difluoromethyl)phenyl)-4-methyl-1H-1,2,3-triazol-5-yl)methoxy)pyridazin-3-yl)-N,N-dimethylpyrrolidin-3-amine] | 9.05

Next, values leading:

pKi | Molecule
9.27 | Cc1nnn(-c2ccc(C(F)F)cc2)c1COc1ccc(N2CCN3c4nc(F)ccc4NC(=O)[C@@H]3C2)nn1 [Example 195, (S)-8-(6-((1-(4-(Difluoromethyl)phenyl)-4-methyl-1H-1,2,3-triazol-5-yl)methoxy)pyridazin-3-yl)-2-fluoro-7,8,9,10-tetrahydro-5H-pyrazino[1,2-a]pyrido[3,2-e]pyrazin-6(6aH)-one]
9.10 | Cc1nnn(-c2ccc(C(F)F)cc2)c1COc1ccc(N2CCN3c4ncccc4NC(=O)[C@@H]3C2)nn1 [Example 194, (S)-8-(6-((1-(4-(Difluoromethyl)phenyl)-4-methyl-1H-1,2,3-triazol-5-yl)methoxy)pyridazin-3-yl)-7,8,9,10-tetrahydro-5H-pyrazino[1,2-a]pyrido[3,2-e]pyrazin-6(6aH)-one]
8.64 | Cc1nnn(-c2ccc(C(F)F)cc2)c1COc1ccc(C2CCNC(=O)C2)cn1 (centres unmarked) [Example 170, 4-(6-((1-(4-(Difluoromethyl)phenyl)-4-methyl-1H-1,2,3-triazol-5-yl)methoxy)pyridin-3-yl)piperidin-2-one]
8.71 | O=C1CN(c2ccc(OCc3c(Cl)nnn3-c3ccc(Cl)cc3)nn2)CCN1 [Example 190, 4-(6-((4-Chloro-1-(4-chlorophenyl)-1H-1,2,3-triazol-5-yl)methoxy)pyridazin-3-yl)piperazin-2-one]
8.69 | Cc1nnn(-c2ccc(C(F)F)cc2)c1COc1ccc(N2CCN3CC(c4cnn(C)c4)NC(=O)[C@@H]3C2)nn1 (single isomer, unassigned) [Example 211]
8.87 | Cc1nnn(-c2ccc(C(F)F)cc2)c1COc1ccc(N2CC(C(=O)Nc3cccnc3F)C2)nn1 [Example 151, 1-(6-((1-(4-(Difluoromethyl)phenyl)-4-methyl-1H-1,2,3-triazol-5-yl)methoxy)pyridazin-3-yl)-N-(2-fluoropyridin-3-yl)azetidine-3-carboxamide]
8.37 | Cc1nnn(-c2ccc(C(F)F)cc2)c1COc1ccc(N2CC(C(=O)N3CCOC(C)(C)C3)C2)nn1 [Example 158, (1-(6-((1-(4-(Difluoromethyl)phenyl)-4-methyl-1H-1,2,3-triazol-5-yl)methoxy)pyridazin-3-yl)azetidin-3-yl)(2,2-dimethylmorpholino)methanone]
7.95 | O=C1NCCN2CCN(c3ccc(OCc4c(CC5CC5)nnn4-c4ccc(C(F)F)cc4)nn3)C[C@@H]12 [Example 187, (S)-8-(6-((4-(Cyclopropylmethyl)-1-(4-(difluoromethyl)phenyl)-1H-1,2,3-triazol-5-yl)methoxy)pyridazin-3-yl)hexahydro-2H-pyrazino[1,2-a]pyrazin-1(6H)-one]
8.78 | COc1cccnc1NC(=O)C1CN(c2ccc(OCc3c(C)nnn3-c3ccc(C(F)F)cc3)nn2)C1 [Example 152, 1-(6-((1-(4-(Difluoromethyl)phenyl)-4-methyl-1H-1,2,3-triazol-5-yl)methoxy)pyridazin-3-yl)-N-(3-methoxypyridin-2-yl)azetidine-3-carboxamide]
8.20 | Cc1nnn(-c2ccc(C(F)F)cc2)c1COc1ccc(N2CC(=O)N3CC4CC3(C4)C2)nn1 [Example 179, 2-(6-((1-(4-(Difluoromethyl)phenyl)-4-methyl-1H-1,2,3-triazol-5-yl)methoxy)pyridazin-3-yl)tetrahydro-6H-7,8a-methanopyrrolo[1,2-a]pyrazin-4(1H)-one]
